Assays:
[1] = molecular target: T1, AR (Homo sapiens, UniProt P10275); test: FRET-based AR conformation change reporter (CARY) in HEK293 kidney cells; type: cell-based; design: Full length AR with cyan fluorescent protein (CFP) or yellow fluorescent protein (YFP) fused to either end (CARY); expressed in transfected cells
T1 sequence (P10275 1-920): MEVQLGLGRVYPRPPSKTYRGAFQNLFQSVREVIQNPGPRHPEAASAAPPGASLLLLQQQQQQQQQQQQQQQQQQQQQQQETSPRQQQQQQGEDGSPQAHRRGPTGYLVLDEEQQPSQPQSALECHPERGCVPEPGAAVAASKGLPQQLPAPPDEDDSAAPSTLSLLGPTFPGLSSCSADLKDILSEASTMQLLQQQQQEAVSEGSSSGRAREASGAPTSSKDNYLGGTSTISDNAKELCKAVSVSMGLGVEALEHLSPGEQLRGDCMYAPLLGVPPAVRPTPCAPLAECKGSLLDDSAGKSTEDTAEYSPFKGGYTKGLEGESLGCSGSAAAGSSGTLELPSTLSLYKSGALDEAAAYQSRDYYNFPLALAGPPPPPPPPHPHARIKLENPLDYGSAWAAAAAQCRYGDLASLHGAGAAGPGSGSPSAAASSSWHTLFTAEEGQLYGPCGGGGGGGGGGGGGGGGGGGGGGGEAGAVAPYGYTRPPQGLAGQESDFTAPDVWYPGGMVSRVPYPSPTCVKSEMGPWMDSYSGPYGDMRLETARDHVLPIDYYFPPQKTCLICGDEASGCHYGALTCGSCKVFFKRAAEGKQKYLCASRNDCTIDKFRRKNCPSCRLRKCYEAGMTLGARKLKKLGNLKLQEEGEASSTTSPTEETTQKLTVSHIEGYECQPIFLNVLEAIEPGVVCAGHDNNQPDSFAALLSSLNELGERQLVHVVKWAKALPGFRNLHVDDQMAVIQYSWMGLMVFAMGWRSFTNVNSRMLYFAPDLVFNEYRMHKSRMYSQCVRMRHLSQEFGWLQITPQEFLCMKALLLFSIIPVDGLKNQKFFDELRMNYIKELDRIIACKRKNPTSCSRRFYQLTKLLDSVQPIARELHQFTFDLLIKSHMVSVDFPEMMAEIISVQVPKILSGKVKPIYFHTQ
Procedure: Creation of stable C-AR-Y reporter cell lines. Cell lines listed above were either transfected with a plasmid or a virus containing the CFP-AR-YFP construct preceding an IRES and hygromycin resistance gene and clonal stable cell lines selected. Qualification criteria for the transfected cell lines were described by Jones et al, ACS Chem Biol, 3(7):412-8 (2008).
Screen for AR-modulators. Screening was performed essentially as described by Jones et al, ACS Chem Biol, 3(7):412-8 (2008). Briefly, C-AR-Y reporter GTI-7 were transferred to 96 well plates and treated with library compounds for 24 hours. […] The compounds to be tested were from the NCI/DTP Open Chemical Repository's Approved Oncology Drugs Set II, Diversity Set II and Mechanistic Set. […] After 24 hours, medium was aspirated and FRET was measured as previously described using a monochromator-based fluorescence plate reader (M1000, Tecan, Inc.). Jones et al, ACS Chem Biol, 3(7):412-8 (2008). […]
In order to identify potential cell-type selective AR modulators, the FRET-based assay of AR conformation change was utilized. […] This produces an accurate and quantifiable read-out of AR activity. […] Candidate hits were then further evaluated by dose response. […] In addition to FRET, AR transcriptional activity was also assessed in several cell lines by transfecting cells with a luciferase reporter driven by the human PSA promoter. […]

[2] = molecular target: T2, AR with a 112 glutamine tract (Homo sapiens, UniProt P10275, INS80QQQQQQQQQQQQQQQQQQQQQQQQQQQQQQQQQQQQQQQQQQQQQQQQQQQQQQQQQQQQQQQQQQQQQQQQQQQQQQQQQQQQQQQQQ); test: Androgen-responsive luciferase reporter assay in PC12 (ARQ112) neuronal cells; type: cell-based; conditions: PC12 cells expressing AR with 112 glutamine tract, FIG. 2B
T2 construct: expressed in transfected cells; host or cells: PC12 (ARQ112), inducible
T2 sequence (P10275 with tags, fused parts or gaps with the stated changes): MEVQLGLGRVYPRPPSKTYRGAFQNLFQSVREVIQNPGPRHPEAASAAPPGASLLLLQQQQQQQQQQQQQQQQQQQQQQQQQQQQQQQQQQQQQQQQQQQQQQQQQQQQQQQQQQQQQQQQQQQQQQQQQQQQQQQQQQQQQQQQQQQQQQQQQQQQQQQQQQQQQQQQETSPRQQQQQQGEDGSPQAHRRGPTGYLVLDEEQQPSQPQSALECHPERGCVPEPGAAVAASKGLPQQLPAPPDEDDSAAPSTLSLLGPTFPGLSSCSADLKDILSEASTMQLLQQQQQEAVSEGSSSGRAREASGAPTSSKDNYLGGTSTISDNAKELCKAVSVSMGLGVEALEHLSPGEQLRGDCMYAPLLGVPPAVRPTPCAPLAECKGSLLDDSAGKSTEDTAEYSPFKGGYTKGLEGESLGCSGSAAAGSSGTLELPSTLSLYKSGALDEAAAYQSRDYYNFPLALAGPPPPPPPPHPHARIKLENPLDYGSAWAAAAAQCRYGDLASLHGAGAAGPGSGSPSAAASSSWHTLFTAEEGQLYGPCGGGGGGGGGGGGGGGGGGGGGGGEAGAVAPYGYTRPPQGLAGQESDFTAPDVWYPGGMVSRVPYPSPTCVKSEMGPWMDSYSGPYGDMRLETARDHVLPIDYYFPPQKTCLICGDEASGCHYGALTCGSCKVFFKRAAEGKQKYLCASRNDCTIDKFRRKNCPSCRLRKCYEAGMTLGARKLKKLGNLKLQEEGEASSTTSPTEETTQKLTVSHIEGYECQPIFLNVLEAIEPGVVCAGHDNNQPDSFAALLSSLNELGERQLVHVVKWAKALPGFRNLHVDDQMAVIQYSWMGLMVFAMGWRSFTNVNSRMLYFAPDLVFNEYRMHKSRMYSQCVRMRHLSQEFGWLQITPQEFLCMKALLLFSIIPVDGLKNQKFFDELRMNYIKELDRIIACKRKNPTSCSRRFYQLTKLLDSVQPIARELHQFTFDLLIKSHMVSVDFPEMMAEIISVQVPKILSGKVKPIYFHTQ
Description: Luciferase Reporter Assay. Cells were transfected using Lipofectamine Plus (Invitrogen) with a normalization plasmid (pRL-SV40, Promega) and an androgen responsive plasmid (MMTV-luciferase or PSA-luciferase) as described in Jones et al, ACS Chem Biol, 3(7):412-8 (2008), and, where indicated, with an shRNA plasmid targeting FOXM1 (adapted for mouse FOXM1 sequence targeting) a scrambled control shRNA plasmid, or ARQ24 or ARQ65 plasmids. Christensen et al, PLoS One, 8(1):e54556 (2013). The following day, cells and drugs were distributed to 96-well plates. 24 hours later, luciferase activity was assessed by a dual luciferase assay kit (Promega) on the Tecan plate reader. Samples were run in quadruplicates and a Student's t test was performed to determine significance, where p<0.05 was considered significant.
The ability of thiostrepton to inhibit AR activity in additional neuronal cells, including ReNcell CX cells PC12 cells, and in rat L6 skeletal muscle cells was examined (FIG. 2B). Donato et al, BMC Neurosci, 8:36 (2007); Yaffe, Proc Natl Acad Sci USA, 61(2):477-83 (1968).
SBMA is caused by the activity of polyglutamine-expanded AR, and experiments were conducted to investigate the effects of thiostrepton against polyglutamine-expanded AR. […]

| SMILES | AR inhibitor activity in words [1] | inhibition of AR activity (luciferase) [2] |
| --- | --- | --- |
| C=C(NC(=O)C(=C)NC(=O)c1csc(C2=N[C@@H]3c4csc(n4)[C@H]4NC(=O)c5csc(n5)[C@H]([C@](C)(O)[C@@H](C)O)NC(=O)[C@H]5CSC(=N5)/C(=C/C)NC(=O)[C@H]([C@@H](C)O)NC(=O)c5csc(n5)[C@]3(CC2)NC(=O)[C@H](C)NC(=O)C(=C)NC(=O)C(=C)NC(=O)[C@H](C(C)C)N[C@@H]2C=Cc3c([C@H](C)O)cc(nc3[C@H]2O)C(=O)O[C@@H]4C)n1)C(N)=O [NSC285116, siomycin A] | some activity |  |
| C=C(NC(=O)C(=C)NC(=O)c1csc(C2=N[C@@H]3c4csc(n4)[C@H]4NC(=O)c5csc(n5)[C@H]([C@](C)(O)[C@@H](C)O)NC(=O)[C@H]5CSC(=N5)/C(=C/C)NC(=O)[C@H]([C@@H](C)O)NC(=O)c5csc(n5)[C@]3(CC2)NC(=O)[C@H](C)NC(=O)C(=C)NC(=O)[C@H](C)NC(=O)[C@H]([C@@H](C)CC)N[C@@H]2C=Cc3c([C@H](C)O)cc(nc3[C@H]2O)C(=O)O[C@@H]4C)n1)C(N)=O [thiostrepton] |  | efficiently inhibited AR activity |
